Experimental data reported in PubChem BioAssay AID330 (DTP/NCI, 2004).
“And” between values parts separate entries of the source, which are not always exact repeats. Identical values can stand only once. Inconclusive results and toxic doses are left out.

System: P388 leukemia ip, CD2F1 mice, survival T/C
Test: NCI In Vivo Anticancer Drug Screen. Data for tumor model P388 Leukemia (intraperitoneal) in CD2F1 (CDF1) mice
Conditions: endpoint: median survival time, higher = longer survival
How it was run: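 Mice carrying the transplanted tumor received test compound or vehicle. Survival was recorded in each group, and the value is the treated-group measurement divided by that of the vehicle-treated control group.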

[1] = dose: 60.0 mg/kg/injection, schedule: Q01DX005 (ip), vehicle: Klucel (hydroxypropylcellulose) (HPC)
[2] = dose: 120.0 mg/kg/injection, schedule: Q01DX005 (ip), vehicle: Klucel (hydroxypropylcellulose) (HPC)
[3] = dose: 240.0 mg/kg/injection, schedule: Q01DX005 (ip), vehicle: Klucel (hydroxypropylcellulose) (HPC)
[4] = dose: 25.0 mg/kg/injection, schedule: Q01DX009 (ip), vehicle: saline with Tween-80
[5] = dose: 50.0 mg/kg/injection, schedule: Q01DX009 (ip), vehicle: saline with Tween-80
[6] = dose: 100.0 mg/kg/injection, schedule: Q01DX009 (ip), vehicle: saline with Tween-80
[7] = dose: 50.0 mg/kg/injection, schedule: Q01DX005 (ip), vehicle: saline with Tween-80
[8] = dose: 100.0 mg/kg/injection, schedule: Q01DX005 (ip), vehicle: saline with Tween-80
[9] = dose: 200.0 mg/kg/injection, schedule: Q01DX005 (ip), vehicle: saline with Tween-80
[10] = dose: 60.0 mg/kg/injection, schedule: Q01DX005 (ip), vehicle: saline with Tween-80
[11] = dose: 120.0 mg/kg/injection, schedule: Q01DX005 (ip), vehicle: saline with Tween-80
[12] = dose: 240.0 mg/kg/injection, schedule: Q01DX005 (ip), vehicle: saline with Tween-80
[13] = dose: 50.0 mg/kg/injection, schedule: Q01DX005 (ip), vehicle: Klucel (hydroxypropylcellulose) (HPC)
[14] = dose: 100.0 mg/kg/injection, schedule: Q01DX005 (ip), vehicle: Klucel (hydroxypropylcellulose) (HPC)
[15] = dose: 200.0 mg/kg/injection, schedule: Q01DX005 (ip), vehicle: Klucel (hydroxypropylcellulose) (HPC)

## CN(C)c1ccc(/C=N\N=C/c2ccc(N(C)C)cc2)cc1
[1]
  T/C: 88 % of control
[2]
  T/C: 87 % of control
[3]
  T/C: 86 % of control

## COc1cccc2c1C(=O)c1c(O)c3c(c(O)c1C2=O)CC(O)(C(=O)CO)CC3OC1CC(N/C(C)=C/C(C)=O)C(O)C(C)O1 (centres undefined)
dose: 10.0 mg/kg/injection, schedule: Q04DX003 (ip), vehicle: saline with Tween-80
  T/C: 160 % of control

## C1CCC2(CC1)C[Se]C2
dose: 7.5 mg/kg/injection, schedule: Q01DX009 (ip), vehicle: saline with Tween-80
  T/C: 108 % of control
dose: 15.0 mg/kg/injection, schedule: Q01DX009 (ip), vehicle: saline with Tween-80
  T/C: 113 % of control
dose: 30.0 mg/kg/injection, schedule: Q01DX009 (ip), vehicle: saline with Tween-80
  T/C: 105 % of control

## Cc1cc(N(c2ccc([N+](=O)[O-])cc2)S(C)(=O)=O)c(C)cc1C=O
[4]
  T/C: 101 % of control
[5]
  T/C: 99 % of control
[6]
  T/C: 98 % of control

## S=P(Oc1cc(Cl)c(Cl)cc1Cl)(N1CCN(c2cccc(Cl)c2)CC1)N1CCN(c2cccc(Cl)c2)CC1
[7]
  T/C: 97 % of control
[8]
  T/C: 88 % of control
[9]
  T/C: 86 % of control

## Fc1cccc(Cl)c1CSC(=S)N1CCSCC1
[10]
  T/C: 110 % of control
[11]
  T/C: 105 % of control
[12]
  T/C: 96 % of control

## Nc1nc(Br)c(Br)nc1N
dose: 100.0 mg/kg/injection, schedule: Q04DX003 (ip), vehicle: other
  T/C: 100 % of control
dose: 200.0 mg/kg/injection, schedule: Q04DX003 (ip), vehicle: other
  T/C: 100 % of control
dose: 400.0 mg/kg/injection, schedule: Q04DX003 (ip), vehicle: other
  T/C: 95 % of control

## O=C(O)/C=C/c1csc(-c2ccc(Cl)cc2)n1
[5]
  T/C: 88 % of control
[6]
  T/C: 88 % of control
dose: 200.0 mg/kg/injection, schedule: Q01DX009 (ip), vehicle: saline with Tween-80
  T/C: 106 % of control

## CN(C)C(=O)Sc1nnc(C(C)(C)C)o1
dose: 25.0 mg/kg/injection, schedule: Q01DX005 (ip), vehicle: Klucel (hydroxypropylcellulose) (HPC)
  T/C: 100 % of control
[13]
  T/C: 106 % of control
[14]
  T/C: 106 % of control

## O/N=C\c1cc2ccccc2c[n+]1Cc1ccc2ccc3cccc4ccc1c2c34
dose: 6.25 mg/kg/injection, schedule: Q01DX005 (ip), vehicle: saline with Tween-80
  T/C: 108 % of control
dose: 12.5 mg/kg/injection, schedule: Q01DX005 (ip), vehicle: saline with Tween-80
  T/C: 108 % of control

## CN(CCCCC(O)CN(C)C(=S)S)C(=S)S (centres undefined)
dose: 50.0 mg/kg/injection, schedule: Q01DX005 (ip), vehicle: saline
  T/C: 98 % of control
dose: 100.0 mg/kg/injection, schedule: Q01DX005 (ip), vehicle: saline
  T/C: 102 % of control
dose: 200.0 mg/kg/injection, schedule: Q01DX005 (ip), vehicle: saline
  T/C: 98 % of control

## Cc1cc2c(=O)c(C(=O)O)c[nH]c2cc1-n1cccc1
[10]
  T/C: 97 % of control
[11]
  T/C: 100 % of control
[12]
  T/C: 102 % of control

## CC(C)=CC(C)(O)c1nc2ccccc2s1 (centres undefined)
[1]
  T/C: 95 % of control
[2]
  T/C: 93 % of control
[3]
  T/C: 96 % of control

## CC1=C[S+](c2ccccc2)c2cccc3cc4ccccc4c1c23 (centres undefined)
dose: 0.62 mg/kg/injection, schedule: Q04DX003 (ip), vehicle: saline
  T/C: 100 % of control
dose: 1.25 mg/kg/injection, schedule: Q04DX003 (ip), vehicle: saline
  T/C: 100 % of control
dose: 2.5 mg/kg/injection, schedule: Q04DX003 (ip), vehicle: saline
  T/C: 104 % of control

## Cc1c2cnccc2c(C)c2c1[nH]c1ccccc12
dose: 25.0 mg/kg/injection, schedule: Q04DX002 (ip), vehicle: Klucel (hydroxypropylcellulose) (HPC)
  T/C: 98 % of control
dose: 50.0 mg/kg/injection, schedule: Q04DX002 (ip), vehicle: Klucel (hydroxypropylcellulose) (HPC)
  T/C: 103 % of control
dose: 100.0 mg/kg/injection, schedule: Q04DX002 (ip), vehicle: Klucel (hydroxypropylcellulose) (HPC)
  T/C: 105 % of control
dose: 180.0 mg/kg/injection, schedule: Q04DX002 (ip), vehicle: Klucel (hydroxypropylcellulose) (HPC)
  T/C: 94 % of control
dose: 200.0 mg/kg/injection, schedule: Q04DX002 (ip), vehicle: Klucel (hydroxypropylcellulose) (HPC)
  T/C: 111 % of control
dose: 360.0 mg/kg/injection, schedule: Q04DX002 (ip), vehicle: Klucel (hydroxypropylcellulose) (HPC)
  T/C: 108 % of control

## COc1ccc2nc3c(=O)[nH]c(=O)nc-3n(CC(O)C(O)C(O)CO)c2c1 (centres undefined)
dose: 25.0 mg/kg/injection, schedule: Q01DX001 (ip), vehicle: saline
  T/C: 104 % of control
dose: 50.0 mg/kg/injection, schedule: Q01DX001 (ip), vehicle: saline
  T/C: 104 % of control
dose: 100.0 mg/kg/injection, schedule: Q01DX001 (ip), vehicle: saline
  T/C: 107 % of control
dose: 100.0 mg/kg/injection, schedule: Q04DX002 (ip), vehicle: saline
  T/C: 109 % of control

## COC(=O)NN(C(=O)OC)C12CCCCC1N(C(=O)OC)N(C(=O)OC)c1c2ccc2cc(OC)ccc12 (centres undefined)
dose: 100.0 mg/kg/injection, schedule: Q01DX001 (ip), vehicle: Klucel (hydroxypropylcellulose) (HPC)
  T/C: 96 % of control
dose: 200.0 mg/kg/injection, schedule: Q01DX001 (ip), vehicle: Klucel (hydroxypropylcellulose) (HPC)
  T/C: 92 % of control
dose: 400.0 mg/kg/injection, schedule: Q01DX001 (ip), vehicle: Klucel (hydroxypropylcellulose) (HPC)
  T/C: 91 % of control

## CCc1nc2c(cnn2C)c(=O)n1-c1ccccc1Cl
[13]
  T/C: 100 % of control
[14]
  T/C: 100 % of control
[15]
  T/C: 102 % of control

## NC(=O)C1=Cc2cc(Cl)ccc2OC1
dose: 6.25 mg/kg/injection, schedule: Q01DX009 (ip), vehicle: saline with Tween-80
  T/C: 97 % of control
dose: 12.5 mg/kg/injection, schedule: Q01DX009 (ip), vehicle: saline with Tween-80
  T/C: 102 % of control
[4]
  T/C: 92 % of control
[5]
  T/C: 106 % of control

## N/C=N/O
dose: 25.0 mg/kg/injection, schedule: Q01DX009 (ip), vehicle: saline
  T/C: 101 % of control
dose: 50.0 mg/kg/injection, schedule: Q01DX009 (ip), vehicle: saline
  T/C: 101 % of control
dose: 100.0 mg/kg/injection, schedule: Q01DX009 (ip), vehicle: saline
  T/C: 111 % of control and 122 % of control
dose: 174.0 mg/kg/injection, schedule: Q01DX009 (ip), vehicle: saline
  T/C: 123 % of control
dose: 260.0 mg/kg/injection, schedule: Q01DX009 (ip), vehicle: saline
  T/C: 90 % of control
dose: 400.0 mg/kg/injection, schedule: Q01DX009 (ip), vehicle: saline
  T/C: 161 % of control

## CCSc1ccc([N+](=O)[O-])c2c(SCC)c3ccccc3nc12
[7]
  T/C: 92 % of control
[8]
  T/C: 95 % of control
[9]
  T/C: 99 % of control

## C=C(Cl)C(O)CNCCCC (centres undefined)
[7]
  T/C: 110 % of control
[8]
  T/C: 110 % of control

## Cc1ccc2nc3ccccc3c(SCCCCCCSc3c4ccccc4nc4ccc(C)cc34)c2c1
[1]
  T/C: 89 % of control
[10]
  T/C: 107 % of control
[2]
  T/C: 87 % of control
[11]
  T/C: 90 % of control
[3]
  T/C: 87 % of control

## O=C1C=C/C(=C\c2cccc(Cl)c2)O1
dose: 100.0 mg/kg/injection, schedule: Q01DX002 (ip), vehicle: Klucel (hydroxypropylcellulose) (HPC)
  T/C: 103 % of control
dose: 200.0 mg/kg/injection, schedule: Q01DX002 (ip), vehicle: Klucel (hydroxypropylcellulose) (HPC)
  T/C: 107 % of control
dose: 400.0 mg/kg/injection, schedule: Q01DX002 (ip), vehicle: Klucel (hydroxypropylcellulose) (HPC)
  T/C: 103 % of control

## Cc1n[nH]c(=O)c2cc3oc4ccccc4c3n12
[10]
  T/C: 100 % of control
[11]
  T/C: 94 % of control
[12]
  T/C: 92 % of control

## CN(C)C1(C)CCC2C3CCC4=CC(=O)CCC4(C)C3CCC21C (centres undefined)
[13]
  T/C: 97 % of control
[14]
  T/C: 97 % of control
[15]
  T/C: 100 % of control
